{"source": "paper PMC6270099", "about": "“Synthesis, Biological Evaluation, and Pharmacokinetic Study of Novel Liguzinediol Prodrugs” (Molecules, 2013)", "experiment": "In vitro physiological stability and formation of parent compound in rat plasma", "assay_type": "in vitro ADME", "details": "37 °C, up to 3 h", "experimental": "Analysis was performed by using a Waters Alliance HPLC system (2695 pump, and 2489 PDA detector) with the following chromatographic parameters: wavelength, 278 nm; injection volume, 20 μL; run time, 20 min. The chromatographic separation was performed on an Phecda C18 (4.6 mm × 250 mm, 5 μm) column with a gradient elution of methanol and deionized water. Flow rate was 1.0 mL/min at 30 °C.\nRat plasma was harvested from in-house rats. Fresh blood was collected from the male rat using a retro-orbital bleeding method in a tube containing heparin (100 IU/mL blood). After the collection of blood, plasma was separated from the blood by centrifugation at 5,000 rpm for 10 min. The supernatant plasma was separated and utilized for the further experiment.\nThe test compound in aqueous solution 30 mM (20 μL) was dissolved in rat plasma (980 μL). Immediately after addition (0 min), aliquots (100 μL) were removed and added to ice cold dissolvent (ethanol-ethyl acetate = 1:4 v/v, 1 mL) and mixed well by vortexing for 2 min. The mixture was centrifuged at 12,000 rpm for 10 min, and the supernatant was diluted with methanol and analyzed by HPLC. After 0 min, the remaining sample was incubated at 37 °C for 1, 2, and 3 h. […]"}
{"smiles": "Cc1nc(CO)c(C)nc1CO", "note": "[1a, Liguzinediol]", "values": [{"measurement": "metabolic stability", "value": "fairly stable"}]}
